{"source": "paper PMC4057667", "about": "“Study on Biopharmaceutics Classification and Oral Bioavailability of a Novel Multikinase Inhibitor NCE for Cancer Therapy” (International Journal of Molecular Sciences, 2014)", "key": {"[1]": {"assay": "Intrinsic dissolution rate (IDR) measurement", "format": "physicochemical", "details": "phosphate buffer pH 6.8 with 1% SDS, 37 °C, 75 rpm, initial 4 h", "experimental": "A modified IDR measurement method was carried out. In brief, 50 mg NCE was compressed under an average compression force of 3.0 MPa for 1 min to make a non-disintegrating compact using a 5 mm die and punch. The surface area of the compact was 0.1963 cm^2. Compacts were placed in a molten beeswax-mold in a way that only one side could come in contact with the dissolution medium. Dissolution study was conducted employing USP II dissolution apparatus using 900 mL phosphate buffer (0.1 mol/mL, pH = 6.8) with 1% SDS (w/v) at 37 ± 1 °C. The paddle rotating speed was 75 rpm. Samples were collected every 30 min for a period of 8 h and analyzed by HPLC. Samples were tested in triplicates.\nTo evaluate the IDR of NCE, the cumulative amount dissolved per surface unit of the compact was plotted against time. The slope of the linear region (R^2 ≥ 0.95) was taken as the intrinsic dissolution rate. IDR was calculated by the following equation as described previously.\n(2) IDR=(dw/dt)(1/S)=DCs/h\nwhere IDR is the intrinsic dissolution rate (mg/min/cm^2); dw is the change in drug dissolved (mg); dt is the change in time (min); S is the surface area of the compact (cm^2); D is diffusion coefficient (cm^2/s); Cs is the solubility (mg/cm^3) and h is the stagnant layer thickness (cm)."}, "[2]": {"set-up": "method as in ref 31 = [31]; 31. Yang Y. Fan C. Zhang J. He X. Yu Y. Fang D. He Y. Song X. Intestinal absorption characteristics and pharmacokinetics of the novel targeted small-molecular NCE in rats Chin. J. New Drugs 2013 21 25", "details": "rats; cited from earlier work"}, "[3]": {"tested_on": "vascular endothelial growth factor receptor 2 (VEGFR2)", "set-up": "method as in PMID 21691074", "details": "at a concentration of 10 μM; cited from earlier work"}, "[4]": {"assay": "Equilibrium solubility in phosphate buffers", "format": "physicochemical", "details": "aqueous buffer, thermodynamic from solid, n = 3, mean", "experimental": "Different phosphate buffers with a pH range of 1.0–7.4 were prepared as follows. Momobasic potassium phosphate (KH2PO4, 0.2 M) was prepared by dissolving 27.22 g of KH2PO4 in water and diluting with water to 1000 mL. Sodium hydroxide (NaOH, 0.2 M) was prepared by dissolving […] of NaOH in water and diluting with water to 1000 mL. Then, we placed 50 mL of the momobasic potassium phosphate solution in a 200 mL volumetric flask, added the specified volume of the sodium hydroxide solution and added water to volume.\nThe equilibrium solubilities of NCE were determined in 0.1 mol/mL phosphate buffers with a pH range of 1.0–7.4. An excess amount of NCE was put into the buffer, placed in a 37 °C water bath and shaken for 3 days at a rate of 100 rpm. Samples were centrifuged at a rate of 1.3 × 10^4 rpm for 10 min and then measured by HPLC (Waters e2695 Separations Module, Milford, MA, USA). Each experiment was performed in triplicates."}, "[5]": {"tested_on": "rat duodenum, jejunum and ileum", "assay": "In situ single-pass intestinal perfusion (SPIP)", "experimental": "The blank perfusion buffer solution was composed of 9.80 g Hanks’ Balanced Salts, 5.96 g 4-2(Hydroxyethyl) piperazine-1-ethanesulfonic acid (HEPES), 1.16 g NaCl, 3.50 g D-glucose and 0.37 g NaHCO3. The pH was adjusted to 6.5. […] The perfusate containing 2 μg/mL of NCE with and without 0.4% SDS was applied to three intestinal segments to investigate the effect of SDS on intestinal absorption of NCE. To examine whether there was any concentration-dependent characteristics or site specific absorption of NCE, 2, 20 and 40 μg/mL of NCE containing 0.4% SDS (w/v) were also studied in three intestinal segments using the same rat perfusion model.\nMale Sprague-Dawley rats (170–230 g) were obtained from the Laboratory Animal Center, Sichuan University (Chengdu, China). Prior to the experiment, animals were fasted for at least 18 h with free access to water. All animal studies were approved and supervised by the State Key Laboratory of Biotherapy Animal Care and Use Committee (Sichuan University, Chengdu, Sichuan, China). Then, single pass intestine perfusion studies were conducted according to the literature. In brief, rats were anaesthetized by pentobarbital sodium (i.p., […]) and placed on a homeothermic pad to maintain their body temperature. After making a 3–4 cm midline abdominal incision, the small intestinal was exposed. The duodenum, jejunum and ileum were isolated as follows: duodenum segment beginning from 1 cm away from pylorus, jejunum segment beginning from 20 cm away from pylorus and ileum segment beginning at the site 20 cm upwards caecum. Each intestinal segment was approximately 10 cm long. After removing the intestinal content by rinsing with warm saline, two glass cannulas were inserted to the distal and proximal end of the segment. Then, the intestinal segments of interest were connected to a perfusion pump and the outlet tubing was placed at the same height as the inlet. The intestine was handled carefully to maintain an intact blood supply.\nThe segments were rinsed with perfusate at the rate of 1.0 mL/min for 10 min, and then perfused at the rate of 0.2 mL/min for 30 min to maintain a steady-state. The time was set zero immediately when the perfusion started. The outlet perfused samples were collected every 15 min until 120 min. Then, the samples were centrifuged at 1.3 × 10^4 rpm for 10 min. The supernatant was analyzed by HPLC. The length of tested segments was measured and rats were euthanized after experiment.\nPeff is the quantitative parameter estimating the passage rate of a solute across a membrane. It was calculated from the steady-state concentration of NCE in the perfusate. The drug concentration in the perfusate was corrected for changes in the water flux. Meanwhile, the density corrected gravimetric method was employed to calculate the net water flux across the incubated intestinal segment. A known volume of perfusate was weighed using an electronic weighing balance to determine the density of the collected samples. After correcting for water flux, the drug concentration in the effluent perfusate (Cout(cor)), was calculated as following.\n(3) Cout(cor)=Cout×Qout/Qin\nwhere Cout is the concentration of tested drug in the effluent perfusates, Qin and Qout are the inlet and outlet flow rate (mL/min), respectively, which are adjusted for liquid density (mL/min).\nThe calculation of permeability across rat intestinal segment was performed from the intestinal perfusate samples collected over 15–120 min (steady state) using the following equation).\n(4) Peff=-Qin ln(Cout(cor)/Cin)/2πrl"}}, "note": "Where “and” joins values, the source holds several entries; their conditions need not be identical. Equal values may be shown once.", "data": [{"smiles": "CNC(=O)c1cc(Oc2ccc(NC(=O)c3cccc(C(F)(F)F)c3)cc2)ccn1.Cc1ccc(S(=O)(=O)O)cc1.O", "note": "[NCE, 2-methylcarbamoyl-4-{4-[3-(trifluoromethyl)benzamido]phenoxy} pyridinium 4-methylbenzenesulfonate monohydrate]", "values": [{"measurement": "Intrinsic dissolution rate (IDR)", "setting": "[1]", "value": "1 × 10^−4 mg·min^−1·cm^−2"}, {"measurement": "absolute oral bioavailability", "setting": "[2]", "value": 44.18, "unit": "%"}, {"measurement": "inhibition rate", "setting": "[3]", "value": 97, "unit": "%"}, {"measurement": "solubility at 3 days", "setting": "[4]; phosphate buffer pH 1.0, 37 °C", "value": 81.7, "unit": "µg/mL"}, {"measurement": "solubility at 3 days", "setting": "[4]; phosphate buffer pH 5.0, 37 °C", "value": 8.5, "unit": "µg/mL"}, {"measurement": "solubility at 3 days", "setting": "[4]; phosphate buffer pH 6.8, 37 °C", "value": 9.3, "unit": "µg/mL"}, {"measurement": "solubility at 3 days", "setting": "[4]; phosphate buffer pH 7.4, 37 °C", "value": 10, "unit": "µg/mL"}, {"measurement": "Peff", "setting": "[5]; Duodenum, 2 μg/mL, with 0.4% SDS, n = 3", "value": "0.26 ± 0.25 ^N.S. 10^−4 cm/s"}, {"measurement": "Peff", "setting": "[5]; Duodenum, 2 μg/mL, without SDS, n = 3", "value": "0.26 ± 0.29 10^−4 cm/s"}, {"measurement": "Peff", "setting": "[5]; Duodenum, perfusate 2 μg/mL, 0.4% SDS, n = 6", "value": "0.21 ± 0.18 10^−4 cm/s"}, {"measurement": "Peff", "setting": "[5]; Duodenum, perfusate 20 μg/mL, 0.4% SDS, n = 6", "value": "0.34 ± 0.12 10^−4 cm/s"}, {"measurement": "Peff", "setting": "[5]; Duodenum, perfusate 40 μg/mL, n = 6", "value": "0.49 ± 0.29 ^* 10^−4 cm/s and 0.49 ± 0.29 10^−4 cm/s"}, {"measurement": "Peff", "setting": "[5]; Ileum, 2 μg/mL, with 0.4% SDS, n = 3", "value": "0.22 ± 0.15 ^N.S. 10^−4 cm/s"}, {"measurement": "Peff", "setting": "[5]; Ileum, 2 μg/mL, without SDS, n = 3", "value": "0.23 ± 0.18 ^N.S. 10^−4 cm/s"}, {"measurement": "Peff", "setting": "[5]; Ileum, perfusate 2 μg/mL, 0.4% SDS, n = 6", "value": "0.23 ± 0.25 ^N.S. 10^−4 cm/s"}, {"measurement": "Peff", "setting": "[5]; Ileum, perfusate 20 μg/mL, 0.4% SDS, n = 6", "value": "0.29 ± 0.10 ^N.S. 10^−4 cm/s"}, {"measurement": "Peff", "setting": "[5]; Ileum, perfusate 40 μg/mL, n = 6", "value": "0.52 ± 0.28 ^N.S. ^* 10^−4 cm/s and 0.52 ± 0.28 ^N.S. 10^−4 cm/s"}, {"measurement": "Peff", "setting": "[5]; Jejunum, 2 μg/mL, with 0.4% SDS, n = 3", "value": "0.25 ± 0.22 ^N.S. 10^−4 cm/s"}, {"measurement": "Peff", "setting": "[5]; Jejunum, 2 μg/mL, without SDS, n = 3", "value": "0.25 ± 0.24 ^N.S. 10^−4 cm/s"}, {"measurement": "Peff", "setting": "[5]; Jejunum, perfusate 2 μg/mL, 0.4% SDS, n = 6", "value": "0.20 ± 0.30 ^N.S. 10^−4 cm/s"}, {"measurement": "Peff", "setting": "[5]; Jejunum, perfusate 20 μg/mL, 0.4% SDS, n = 6", "value": "0.30 ± 0.15 ^N.S. 10^−4 cm/s"}, {"measurement": "Peff", "setting": "[5]; Jejunum, perfusate 40 μg/mL, n = 6", "value": "0.56 ± 0.26 ^N.S. ^* 10^−4 cm/s and 0.56 ± 0.26 ^N.S. 10^−4 cm/s"}, {"measurement": "transportation mechanism in intestine", "setting": "[5]; Peff unchanged from 2–40 μg/mL", "value": "passive diffusion"}, {"measurement": "permeability class", "setting": "[5]; from Peff compared with theophylline, ranitidine and propranolol", "value": "high permeability"}, {"measurement": "minimum of Peff", "setting": "[5]; three segments, three concentrations, found in jejunum", "value": "2e-05", "unit": "cm/s"}]}]}
